Laboratory results: patent US20260049076A1, “Tertiary Amine Substituted Bicyclic Compounds Useful as T Cell Activators” (BRISTOL-MYERS SQUIBB COMPANY, priority 2022, published 2026)

molecular target: T1, human DGKζ (Homo sapiens, UniProt Q13574); assay: In vitro DGK inhibition assay, DGKζ liposome (LIPGLO) assay; format: biochemical; details: read-out: Enzyme Inhibition DGKzeta IC50
T1 construct: TVMV protease cleavage site (C); Hexa-His (C); made in house; host or cells: Sf9 insect cells (baculovirus)
Protocol: (§1) The DGKα and DGKζ reactions were performed using either extruded liposome (DGKα and DGKζ LIPGLO assays) or detergent/lipid micelle substrate (DGKα and DGKζ assays). The reactions were carried out in 50 mM MOPS pH 7.5, 100 mM NaCl, 10 mM MgCl2, 1 μM CaCl2, and 1 mM DTT (assay buffer). The reactions using a detergent/lipid micelle substrate also contained 50 mM octyl B-D-glucopyranoside. The lipid substrate concentrations were 11 mM PS and 1 mM DAG for the detergent/lipid micelle reactions. The lipid substrate concentrations were 2 mM PS, 0.25 mM DAG, and 2.75 mM PC for the extruded liposome reactions (5 mM total lipid). The reactions were carried out in 150 μM ATP The enzyme concentrations for the DGKα and DGKζ were 5 nM
(§2) The compound inhibition studies were carried out as follows: 25 nL (ADPGLO assay) or 50 nL (LIPGLO assay) droplets of each test compound (top concentration 10 mM with 11 point, 3-fold dilution series for each compound) solubilized in DMSO were transferred to wells of a white 1536 well plate (Corning 3725). A 5 mL enzyme/lipid substrate solution at 2× final reaction concentration was prepared by combining 2.5 mL 4× enzyme solution (20 nM DGKα, or DGKζ (prepared as described below) in assay buffer) and 2.5 mL of either 4× liposome or 4× detergent/lipid micelle solution (compositions described below) and incubated at room temperature for 10 minutes. Next, 1 μL 2× enzyme/lipid substrate solution was added to wells containing the test compound and reactions were initiated with the addition of 1 μL 300 uM ATP. The reactions were allowed to proceed for 2 hr (ADPGLO assay) or 1 hr (LIPGLO assay), after which 2 μL Glo Reagent (Promega V9101) was added and incubated for 40 minutes. Next, 4 μL Kinase Detection Reagent was added and incubated for 30 minutes. Luminescence was recorded using an EnVision microplate reader. […] The compounds were evaluated at 11 concentrations to determine IC50.
(§3) The lipid composition was 5 mol % DAG (Avanti 8008110), 40 mol % PS (Avanti 840035P), and 55 mol % PC (Avanti 850457) at a total lipid concentration of 7-8 mg/mL for the liposome solution. The PC, DAG, and PS were dissolved in chloroform, combined, and dried in vacuo to a thin film. The lipids were hydrated to 20 mM in 50 mM MOPS pH 7.5, 100 mM NaCl, 5 mM MgCl2, and were freeze-thawed five times. The lipid suspension was extruded through a 100 nm polycarbonate filter 10-12 times. […] The liposome preparation was stored at 4° C. for as long as four weeks.
as §3, with “15.2” for “7-8”, “the 4×” for “the”, “eleven” for “10-12”
(§4) Human DGK-alpha-TVMV-His-pFBgate and human DGK-zeta-transcript variant-2-TVMV-His-pFBgate baculovirus samples were generated using the Bac-to-Bac baculovirus expression system (Invitrogen) according to the manufacturer's protocol. […] Baculovirus amplification was achieved using infected Sf9 cells at 1:1500 virus/cell ratios, and grown for 65 hours at 27° C. post-transfection.
(§5) The expression scale up for each protein was carried out in the Cellbag 50L WAVE-Bioreactor System 20/50 from GE Healthcare Bioscience. 12 L of 2×10^6 cells/mL Sf9 cells (Expression System, Davis, CA) grown in ESF921 insect medium (Expression System) were infected with virus stock at 1:200 virus/cell ratios, and grown for 66-68 hours at 27° C. post-infection.

T1 sequence (Q13574 with tags, fused parts or gaps isoform Q13574-4): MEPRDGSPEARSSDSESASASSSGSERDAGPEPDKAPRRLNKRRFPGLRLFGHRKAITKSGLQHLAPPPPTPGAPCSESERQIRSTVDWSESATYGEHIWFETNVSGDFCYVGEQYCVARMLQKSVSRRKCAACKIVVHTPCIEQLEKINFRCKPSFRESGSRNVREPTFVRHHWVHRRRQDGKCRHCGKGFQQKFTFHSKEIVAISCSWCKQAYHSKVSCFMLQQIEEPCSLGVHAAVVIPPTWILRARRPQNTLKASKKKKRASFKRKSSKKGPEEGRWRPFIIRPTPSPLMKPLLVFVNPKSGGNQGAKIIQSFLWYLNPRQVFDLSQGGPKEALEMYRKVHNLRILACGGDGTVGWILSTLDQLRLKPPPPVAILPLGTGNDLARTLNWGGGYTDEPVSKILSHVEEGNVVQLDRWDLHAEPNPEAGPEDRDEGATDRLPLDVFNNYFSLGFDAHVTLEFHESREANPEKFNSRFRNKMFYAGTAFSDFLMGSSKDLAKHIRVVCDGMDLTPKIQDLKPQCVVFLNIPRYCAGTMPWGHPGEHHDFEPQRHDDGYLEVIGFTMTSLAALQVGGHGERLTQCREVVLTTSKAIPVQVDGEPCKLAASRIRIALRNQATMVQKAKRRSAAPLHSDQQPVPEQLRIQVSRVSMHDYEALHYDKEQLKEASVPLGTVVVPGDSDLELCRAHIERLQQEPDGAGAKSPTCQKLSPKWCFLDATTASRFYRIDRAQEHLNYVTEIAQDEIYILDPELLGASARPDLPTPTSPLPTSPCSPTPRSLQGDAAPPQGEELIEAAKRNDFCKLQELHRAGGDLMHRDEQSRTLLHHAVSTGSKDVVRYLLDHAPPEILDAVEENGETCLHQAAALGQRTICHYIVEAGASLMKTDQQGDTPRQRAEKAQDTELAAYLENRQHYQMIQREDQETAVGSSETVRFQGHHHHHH

Q: With `CN(c1c(C#N)c(=O)n(C)c2ccc(Br)nc12)C1CCCCC1` [Example 7, 6-bromo-4-[cyclohexyl(methyl)amino]-1-methyl-2-oxo-1,2-dihydro-1,5-naphthyridine-3-carbonitrile] as the compound, how does the IC50 read?
A: Its IC50 is 21 µM.

Q: For `Cn1c(=O)cc(N(CC2CC2)c2ccc(-c3cccc(C(N)=O)c3)cc2)c2nc(C#N)ccc21` [Example 84, 4′-((6-cyano-1-methyl-2-oxo-1,2-dihydro-1,5-naphthyridin-4-yl)(cyclopropylmethyl)amino)-[1,1′-biphenyl]-3-carboxamide], which IC50 is on record?
A: Its IC50 is 7.6 µM.

Q: Which IC50 does the source give for `Cn1c(=O)cc(N(CC2CC2)c2ccc(OC(F)(F)F)cc2)c2nc(C#N)ccc21` [Example 41, 8-((cyclopropylmethyl)(4-(trifluoromethoxy)phenyl)amino)-5-methyl-6-oxo-5,6-dihydro-1,5-naphthyridine-2-carbonitrile] here?
A: The IC50 was 3 µM.

Q: With `CN(c1cccc(C#N)c1)c1cc(=O)n(C)c2ccc(C#N)nc12` [Example 21, 8-((3-cyanophenyl)(methyl)amino)-5-methyl-6-oxo-5,6-dihydro-1,5-naphthyridine-2-carbonitrile] as the compound, how does the IC50 read?
A: The IC50 was greater than 125 µM.

Q: Which IC50 does the source give for `CC1CCC(N(C)c2c(C#N)c(=O)n(C)c3ccc(Br)nc23)CC1` (stereo not shown) [Example 8, 6-bromo-1-methyl-4-(methyl(4-methylcyclohexyl)amino)-2-oxo-1,2-dihydro-1,5-naphthyridine-3-carbonitrile] here?
A: Its IC50 is 31 µM.

Q: For `Cn1c(=O)cc(N(CC2CC2)c2ccc(C3CC3)cn2)c2nc(C#N)ccc21` [Example 46, 8-((cyclopropylmethyl)(5-cyclopropylpyridin-2-yl)amino)-5-methyl-6-oxo-5,6-dihydro-1,5-naphthyridine-2-carbonitrile], which IC50 is on record?
A: Its IC50 is 0.99 µM.

Q: How did the IC50 turn out when `CN(c1cc(=O)n(C)c2ccc(C#N)nc12)C1CCCCC1` [Example 19, 8-(cyclohexyl(methyl)amino)-5-methyl-6-oxo-5,6-dihydro-1,5-naphthyridine-2-carbonitrile] was run?
A: Its IC50 is 12 µM.

Q: Which IC50 does the source give for `CC(C1CC1)N(C)c1c(C#N)c(=O)n(C)c2ccc(Br)nc12` (racemic) [Example 9, 6-bromo-4-((1-cyclopropylethyl)(methyl)amino)-1-methyl-2-oxo-1,2-dihydro-1,5-naphthyridine-3-carbonitrile] here?
A: Its IC50 is 7.1 µM.

Q: How did the IC50 turn out when `CN(c1c(C#N)c(=O)n(C)c2ccc(C#N)nc12)C1CCCCC1` [Example 10, 8-[cyclohexyl(methyl)amino]-5-methyl-6-oxo-5,6-dihydro-1,5-naphthyridine-2,7-dicarbonitrile] was run?
A: Its IC50 is 4 µM.

Q: How did the IC50 turn out when `C#CCn1c(=O)c(C#N)c(N(C)C2CCCCC2)c2nc(Br)ccc21` [Example 16, 6-bromo-4-[cyclohexyl(methyl)amino]-2-oxo-1-(prop-2-yn-1-yl)-1,2-dihydro-1,5-naphthyridine-3-carbonitrile] was run?
A: The IC50 was 12 µM.

Q: `Cc1ccc2c(n1)c(N(C)C(C)C1CC1)c(C#N)c(=O)n2C` (stereo not shown) [Example 14, 4-[(1-cyclopropylethyl)(methyl)amino]-1,6-dimethyl-2-oxo-1,2-dihydro-1,5-naphthyridine-3-carbonitrile] was tested. Which IC50 did it give?
A: Its IC50 is 29 µM.

Q: How did the IC50 turn out when `COc1ccc2c(n1)c(N(C)C1CCCCC1)c(C#N)c(=O)n2C` [Example 12, 4-[cyclohexyl(methyl)amino]-6-methoxy-1-methyl-2-oxo-1,2-dihydro-1,5-naphthyridine-3-carbonitrile] was run?
A: Its IC50 is 84 µM.

Q: How did the IC50 turn out when `CC(C1CC1)N(C)c1c(C#N)c(=O)n(C)c2ccc(CC#N)nc12` (stereo not shown) [Example 15, 6-(cyanomethyl)-4-[(1-cyclopropylethyl)(methyl)amino]-1-methyl-2-oxo-1,2-dihydro-1,5-naphthyridine-3-carbonitrile] was run?
A: Its IC50 is 7.1 µM.

Q: `CC(C1CC1)N(C)c1c(C#N)c(=O)n(C)c2ccc(C#N)nc12` (stereo not shown) [Example 11, 8-[(1-cyclopropylethyl)(methyl)amino]-5-methyl-6-oxo-5,6-dihydro-1,5-naphthyridine-2,7-dicarbonitrile] was tested. Which IC50 did it give?
A: Its IC50 is 7.3 µM.

molecular target: T2, human DGKα (Homo sapiens, UniProt P23743); assay: In vitro DGK inhibition assay, DGKα liposome (LIPGLO) assay; format: biochemical; details: read-out: Enzyme Inhibition DGKalpha IC50
T2 construct: TVMV protease cleavage site (C); Hexa-His (C); made in house; host or cells: Sf9 insect cells (baculovirus)
Protocol: as §1, §2, §3
as §3, with “15.2” for “7-8”, “the 4×” for “the”, “eleven” for “10-12”
as §4, §5

T2 sequence (P23743 with tags, fused parts or gaps): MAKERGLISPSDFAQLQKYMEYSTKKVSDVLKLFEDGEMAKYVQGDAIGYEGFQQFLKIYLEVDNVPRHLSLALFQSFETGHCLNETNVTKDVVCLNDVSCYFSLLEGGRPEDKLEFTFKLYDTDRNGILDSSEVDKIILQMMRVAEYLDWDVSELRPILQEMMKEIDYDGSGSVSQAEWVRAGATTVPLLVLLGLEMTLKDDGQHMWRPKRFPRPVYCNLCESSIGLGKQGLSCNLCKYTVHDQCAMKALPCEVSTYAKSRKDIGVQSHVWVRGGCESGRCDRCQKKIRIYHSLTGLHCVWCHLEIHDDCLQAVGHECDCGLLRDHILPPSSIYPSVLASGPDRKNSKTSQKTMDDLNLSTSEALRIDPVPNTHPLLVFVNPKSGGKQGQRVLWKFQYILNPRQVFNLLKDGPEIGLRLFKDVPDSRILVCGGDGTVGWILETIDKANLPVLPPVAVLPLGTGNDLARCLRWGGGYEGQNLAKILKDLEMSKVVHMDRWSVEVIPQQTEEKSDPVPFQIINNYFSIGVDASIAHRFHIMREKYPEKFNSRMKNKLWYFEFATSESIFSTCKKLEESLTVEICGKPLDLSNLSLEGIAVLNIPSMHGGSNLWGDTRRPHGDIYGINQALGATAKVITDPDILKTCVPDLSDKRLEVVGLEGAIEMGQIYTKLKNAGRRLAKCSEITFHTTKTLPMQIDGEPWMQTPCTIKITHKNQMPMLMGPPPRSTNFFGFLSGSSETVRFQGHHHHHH

Q: How did the IC50 turn out when `Cn1c(=O)cc(N(CC2CC2)c2ccc(-c3cccc(C(N)=O)c3)cc2)c2nc(C#N)ccc21` [Example 84, 4′-((6-cyano-1-methyl-2-oxo-1,2-dihydro-1,5-naphthyridin-4-yl)(cyclopropylmethyl)amino)-[1,1′-biphenyl]-3-carboxamide] was run?
A: Its IC50 is 18 µM.

Q: How did the IC50 turn out when `Cn1c(=O)cc(N(CC2CC2)c2ccc(OC(F)(F)F)cc2)c2nc(C#N)ccc21` [Example 41, 8-((cyclopropylmethyl)(4-(trifluoromethoxy)phenyl)amino)-5-methyl-6-oxo-5,6-dihydro-1,5-naphthyridine-2-carbonitrile] was run?
A: Its IC50 is 8.4 µM.
